Assay results as given in US20250376461A1, “INDAZOLE DERIVATIVES FOR TREATING TRPM3-MEDIATED DISORDERS” (Katholieke Universiteit Leuven, priority 2022, published 2025).

Target: T1, mouse TRPM3α2 (mTRPM3) ion channel (Mus musculus, UniProt J9SQF3)
T1 construct: expressed in transfected cells; host or cells: flip-in HEK293
Assay: TRPM3 ion channel driven Ca2+ uptake, Fluo-4 AM assay, mTRPM3alpha2 overexpressing flip-in HEK293 cells stimulated with pregnenolone sulfate (50 μM)
Format: cell-based
Details: mTRPM3 overexpressing HEK293 cells stimulated with pregnenolone sulfate (50 μM), activity ranges A, B, C
Method in brief: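 Flip-in HEK293 cells overexpressing mTRPM3α2, loaded with Fluo-4 AM, added at ±2000 cells/well to plates holding compound plus 50 μM pregnenolone sulfate in Ca2+-containing Krebs buffer. Fluorescence (ex 485/em 535 nm) read immediately. Percent inhibition normalised between vehicle and positive-control inhibitor; IC50 derived.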

T1 sequence (J9SQF3 1-1709 isoform J9SQF3-12): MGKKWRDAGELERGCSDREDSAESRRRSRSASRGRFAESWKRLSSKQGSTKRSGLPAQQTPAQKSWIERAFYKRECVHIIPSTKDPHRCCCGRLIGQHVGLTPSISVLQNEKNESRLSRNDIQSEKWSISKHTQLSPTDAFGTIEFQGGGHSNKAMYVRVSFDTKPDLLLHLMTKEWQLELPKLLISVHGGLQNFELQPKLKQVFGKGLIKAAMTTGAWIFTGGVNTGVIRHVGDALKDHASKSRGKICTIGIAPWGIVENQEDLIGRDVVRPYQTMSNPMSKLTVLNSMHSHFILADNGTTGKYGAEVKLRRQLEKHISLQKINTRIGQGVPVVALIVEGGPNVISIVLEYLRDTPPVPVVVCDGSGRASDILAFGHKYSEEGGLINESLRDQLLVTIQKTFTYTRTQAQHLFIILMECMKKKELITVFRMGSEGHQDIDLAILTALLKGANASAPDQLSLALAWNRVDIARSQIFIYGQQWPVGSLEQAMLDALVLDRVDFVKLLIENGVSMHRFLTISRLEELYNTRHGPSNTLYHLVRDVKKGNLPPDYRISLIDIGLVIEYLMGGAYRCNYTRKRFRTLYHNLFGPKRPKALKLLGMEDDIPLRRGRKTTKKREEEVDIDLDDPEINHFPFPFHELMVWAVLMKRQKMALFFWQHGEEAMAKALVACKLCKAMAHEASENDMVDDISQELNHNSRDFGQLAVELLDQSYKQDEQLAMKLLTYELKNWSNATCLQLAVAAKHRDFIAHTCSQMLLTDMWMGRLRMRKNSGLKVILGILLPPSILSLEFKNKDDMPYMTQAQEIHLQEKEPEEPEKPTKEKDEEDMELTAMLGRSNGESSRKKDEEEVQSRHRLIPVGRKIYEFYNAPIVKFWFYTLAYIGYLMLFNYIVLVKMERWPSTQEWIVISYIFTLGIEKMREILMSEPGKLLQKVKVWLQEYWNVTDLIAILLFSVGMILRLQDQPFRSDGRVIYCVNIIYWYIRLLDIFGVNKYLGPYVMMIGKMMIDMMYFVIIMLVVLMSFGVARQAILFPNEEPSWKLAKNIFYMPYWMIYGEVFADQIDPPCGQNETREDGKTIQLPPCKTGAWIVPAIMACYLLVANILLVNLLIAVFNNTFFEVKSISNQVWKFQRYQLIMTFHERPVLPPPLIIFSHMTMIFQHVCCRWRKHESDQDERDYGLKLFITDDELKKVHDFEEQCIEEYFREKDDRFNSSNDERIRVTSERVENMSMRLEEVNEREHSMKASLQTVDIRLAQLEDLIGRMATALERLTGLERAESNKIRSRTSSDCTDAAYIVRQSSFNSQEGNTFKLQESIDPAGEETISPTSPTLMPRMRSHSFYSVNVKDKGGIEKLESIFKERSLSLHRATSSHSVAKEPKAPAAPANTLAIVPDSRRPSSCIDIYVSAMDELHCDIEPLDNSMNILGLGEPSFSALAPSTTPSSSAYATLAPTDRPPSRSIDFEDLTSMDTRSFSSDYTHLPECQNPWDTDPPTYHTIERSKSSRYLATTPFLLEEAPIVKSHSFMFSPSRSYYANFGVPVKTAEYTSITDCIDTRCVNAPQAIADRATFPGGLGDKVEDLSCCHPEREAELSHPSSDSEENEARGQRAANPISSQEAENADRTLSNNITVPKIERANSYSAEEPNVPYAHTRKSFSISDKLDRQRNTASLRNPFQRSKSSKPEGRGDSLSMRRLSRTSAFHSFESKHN

First: Cn1nc2ccc(OCC3CCCC3)cc2c1C(=O)N[C@@H](CO)C(N)=O [Cpd 143, (2S)-2-{[5-(cyclopentylmethoxy)-2-methyl-2H-indazol-3-yl]formamido}-3-hydroxypropanamide]
Second: Cn1nc2ccc(OCC3CCCC3)cc2c1C(=O)NC(C)(C)C(N)=O [Cpd 145, 2-{[5-(cyclopentylmethoxy)-2-methyl-2H-indazol-3-yl]formamido}-2-methylpropanamide]
The IC50 of the first is lower: < 1 µM for the first, 1 to 20 µM for the second. The first is the more potent here.

`Cn1nc2ccc(OCC3CCCC3)cc2c1C(=O)NC(C)(CO)CO` [Cpd 144, 5-(cyclopentylmethoxy)-N-(1,3-dihydroxy-2-methylpropan-2-yl)-2-methyl-2H-indazole-3-carboxamide] and `Cn1nc2ccc(OCC3(C#N)CC3)cc2c1C(=O)NC(C)(CO)CO` [Cpd 146, 5-[(1-cyanocyclopropyl)methoxy]-N-(1,3-dihydroxy-2-methylpropan-2-yl)-2-methyl-2H-indazole-3-carboxamide] cannot be ordered by IC50: > 20 µM for the first, > 20 µM for the second.

`Cc1ncc(COc2ccc3nn(C)c(C(=O)NC(CO)(CO)CO)c3c2)s1` [Cpd 147, N-[1,3-dihydroxy-2-(hydroxymethyl)propan-2-yl]-2-methyl-5-[(2-methyl-1,3-thiazol-5-yl)methoxy]-2H-indazole-3-carboxamide] and `Cc1ncc(COc2ccc3nn(C)c(C(=O)NCC(F)F)c3c2)s1` [Cpd 150, N-(2,2-difluoroethyl)-2-methyl-5-[(2-methyl-1,3-thiazol-5-yl)methoxy]-2H-indazole-3-carboxamide] fall in the same range of IC50: 1 to 20 µM for the first, 1 to 20 µM for the second.

`Cn1nc2ccc(OCC3(C#N)CC3)cc2c1C(=O)N[C@@H](CO)C(N)=O` [Cpd 148, (2S)-2-({5-[(1-cyanocyclopropyl)methoxy]-2-methyl-2H-indazol-3-yl}formamido)-3-hydroxypropanamide] and `CC1CC(COc2ccc3nn(C)c(C(=O)NC(C)(CO)C(N)=O)c3c2)C1` (stereo not shown) [Cpd 196, 3-hydroxy-2-methyl-2-({2-methyl-5-[(3-methylcyclobutyl)methoxy]-2H-indazol-3-yl}formamido)propenamide] fall in the same range of IC50: 1 to 20 µM for the first, 1 to 20 µM for the second.

First: Cc1ncc(COc2ccc3nn(C)c(C(=O)N[C@H](C(N)=O)[C@@H](C)O)c3c2)s1 [Cpd 149, (2S,3R)-3-hydroxy-2-({2-methyl-5-[(2-methyl-1,3-thiazol-5-yl)methoxy]-2H-indazol-3-yl}formamido)butanamide]
Second: Cc1ncsc1COc1ccc2nn(C)c(C(=O)O)c2c1 [Cpd 199, 2-methyl-5-[(4-methyl-1,3-thiazol-5-yl)methoxy]-2H-indazole-3-carboxylic acid]
The IC50 of the first is lower: < 1 µM for the first, > 20 µM for the second.

First: Cn1nc2ccc(OCc3ccccn3)cc2c1C(=O)N[C@@H]1CCN(CCO)C1=O [Cpd 152, N-[(3R)-1-(2-hydroxyethyl)-2-oxopyrrolidin-3-yl]-2-methyl-5-[(pyridin-2-yl)methoxy]-2H-indazole-3-carboxamide]
Second: Cn1nc2ccc(OCc3ccccn3)cc2c1C(=O)N[C@H]1CCN(CCO)C1=O [Cpd 153, N-[(3S)-1-(2-hydroxyethyl)-2-oxopyrrolidin-3-yl]-2-methyl-5-[(pyridin-2-yl)methoxy]-2H-indazole-3-carboxamide]
The IC50 of the first is lower: 1 to 20 µM for the first, > 20 µM for the second. The first is the more potent here.

First: Cn1cc(COc2ccc3nn(C)c(C(=O)NC(C)(CO)C(N)=O)c3c2)cn1 (stereo not shown) [Cpd 156, 3-hydroxy-2-methyl-2-({2-methyl-5-[(1-methyl-1H-pyrazol-4-yl)methoxy]-2H-indazol-3-yl}formamido)propanamide]
Second: CCC(CO)(NC(=O)c1c2cc(OCc3ccccn3)ccc2nn1C)C(N)=O (stereo not shown) [Cpd 189, 2-(hydroxymethyl)-2-({2-methyl-5-[(pyridin-2-yl)methoxy]-2H-indazol-3-yl}formamido)butanamide]
The IC50 of the first is higher: 1 to 20 µM for the first, < 1 µM for the second. The second is the more potent here.

`Cn1nc2ccc(OCc3ccccc3)cc2c1C(=O)O` [Cpd 197, 5-(benzyloxy)-2-methyl-2H-indazole-3-carboxylic acid] and `Cn1nc2ccc(OCc3ccccc3F)cc2c1C(=O)O` [Cpd 198, 5-[(2-fluorophenyl)methoxy]-2-methyl-2H-indazole-3-carboxylic acid] fall in the same range of IC50: 1 to 20 µM for the first, 1 to 20 µM for the second.

`Cn1nc2ccc(OCc3ccccn3)cc2c1C(=O)NCC(F)(F)F` [Cpd 204, 2-methyl-5-[(pyridin-2-yl)methoxy]-N-(2,2,2-trifluoroethyl)-2H-indazole-3-carboxamide] and `Cn1nc2ccc(OCc3ccccn3)cc2c1C(=O)NCCO` [Cpd 205, N-(2-hydroxyethyl)-2-methyl-5-[(pyridin-2-yl)methoxy]-2H-indazole-3-carboxamide] cannot be ordered by IC50: > 20 µM for the first, > 20 µM for the second.

`Cn1nc2ccc(OCc3ccccn3)cc2c1C(=O)NCc1ncc[nH]1` [Cpd 206, N-[(1H-imidazol-2-yl)methyl]-2-methyl-5-[(pyridin-2-yl)methoxy]-2H-indazole-3-carboxamide] and `Cn1nc2ccc(OCc3ccccn3)cc2c1C(=O)NC(CO)CO` [Cpd 259, N-(1,3-dihydroxypropan-2-yl)-2-methyl-5-[(pyridin-2-yl)methoxy]-2H-indazole-3-carboxamide] fall in the same range of IC50: 1 to 20 µM for the first, 1 to 20 µM for the second.

`CN(C)CC(C)(C)CNC(=O)c1c2cc(OCc3ccccn3)ccc2nn1C` [Cpd 207, N-[3-(dimethylamino)-2,2-dimethylpropyl]-2-methyl-5-[(pyridin-2-yl)methoxy]-2H-indazole-3-carboxamide] and `Cn1nc2ccc(OCc3ccccn3)cc2c1C(=O)NCC(F)(F)c1ccccc1` [Cpd 208, N-(2,2-difluoro-2-phenylethyl)-2-methyl-5-[(pyridin-2-yl)methoxy]-2H-indazole-3-carboxamide] cannot be ordered by IC50: > 20 µM for the first, > 20 µM for the second.

`Cn1nc2ccc(OCc3ccccn3)cc2c1C(=O)NCc1c(F)cccc1C(F)(F)F` [Cpd 209, N-{[2-fluoro-6-(trifluoromethyl)phenyl]methyl}-2-methyl-5-[(pyridin-2-yl)methoxy]-2H-indazole-3-carboxamide] and `Cn1nc2ccc(OCc3ccccn3)cc2c1C(=O)NCc1cccc(OC(F)F)c1` [Cpd 210, N-{[3-(difluoromethoxy)phenyl]methyl}-2-methyl-5-[(pyridin-2-yl)methoxy]-2H-indazole-3-carboxamide] cannot be ordered by IC50: > 20 µM for the first, > 20 µM for the second.

Compared with `Cn1nc2ccc(OCc3ccccn3)cc2c1C(=O)NC1(CO)CC(F)(F)C1` [Cpd 217, N-[3,3-difluoro-1-(hydroxymethyl)cyclobutyl]-2-methyl-5-[(pyridin-2-yl)methoxy]-2H-indazole-3-carboxamide], `Cn1nc2ccc(OCc3ccccn3)cc2c1C(=O)NC1(CO)COC(C)(C)OC1` [Cpd 219, N-[5-(hydroxymethyl)-2,2-dimethyl-1,3-dioxan-5-yl]-2-methyl-5-[(pyridin-2-yl)methoxy]-2H-indazole-3-carboxamide] is higher in IC50: 1 to 20 µM for the first, > 20 µM for the second.

`C=C(Nc1cc(C(F)(F)F)cnc1O)c1c2cc(OCc3ccccn3)ccc2nn1C` [Cpd 218, 3-[(1-{2-methyl-5-[(pyridin-2-yl)methoxy]-2H-indazol-3-yl}ethenyl)amino]-5-(trifluoromethyl)pyridin-2-ol] and `Cn1nc2ccc(OCc3ccccn3)cc2c1C(=O)NC(CO)Cn1ccnc1C(F)(F)F` (stereo not shown) [Cpd 242, N-{1-hydroxy-3-[2-(trifluoromethyl)-1H-imidazol-1-yl]propan-2-yl}-2-methyl-5-[(pyridin-2-yl)methoxy]-2H-indazole-3-carboxamide] cannot be ordered by IC50: > 20 µM for the first, > 20 µM for the second.

First: Cn1nc2ccc(OCc3ccccn3)cc2c1C(=O)NC(CO)(CCF)C(N)=O (stereo not shown) [Cpd 234, 4-fluoro-2-(hydroxymethyl)-2-({2-methyl-5-[(pyridin-2-yl)methoxy]-2H-indazol-3-yl}formamido)butanamide]
Second: Cn1nc2ccc(OCc3ccccc3F)cc2c1C(=O)NC(CO)CO [Cpd 262, N-(1,3-dihydroxypropan-2-yl)-5-[(2-fluorophenyl)methoxy]-2-methyl-2H-indazole-3-carboxamide]
The IC50 of the first is lower: < 1 µM for the first, 1 to 20 µM for the second.

`O=C1NCCn2nc3ccc(OCc4ccccc4F)cc3c21` [Cpd 256, 9-[(2-fluorophenyl)methoxy]-1H,2H,3H,4H-pyrazino[1,2-b]indazol-1-one] and `O=C1NCCn2nc3ccc(OCc4ccccc4)cc3c21` [Cpd 257, 9-(benzyloxy)-1H,2H,3H,4H-pyrazino[1,2-b]indazol-1-one] cannot be ordered by IC50: > 20 µM for the first, > 20 µM for the second.

First: O=C1c2c3cc(OCc4ccccc4F)ccc3nn2CCN1C(CO)CO [Cpd 260, 2-(1,3-dihydroxypropan-2-yl)-9-[(2-fluorophenyl)methoxy]-1H,2H,3H,4H-pyrazino[1,2-b]indazol-1-one]
Second: O=C1c2c3cc(OCc4ccccc4F)ccc3nn2CCN1CCO [Cpd 261, 9-[(2-fluorophenyl)methoxy]-2-(2-hydroxyethyl)-1H,2H,3H,4H-pyrazino[1,2-b]indazol-1-one]
The IC50 of the first is lower: < 1 µM for the first, 1 to 20 µM for the second. The first is the more potent here.
